Assay results published in article PMC5717343 (Open Biology, 2017).

Test system: PrP^Sc in iPK1/2 cells
Assay type: cell-based

dextran sulfate
concentration of apparent curing: greater than 1 × 10^−6 M
effect on PrP^Sc levels / prion infection (curing): dose-dependent decrease in PrP^Sc
IC50 (read-out: apparent IC50, reduction of PrP^Sc): ~0.5 µM
